Drawing on patent US8304539B2, “Fused heteroaryl modulators of glucocorticoid receptor, AP-1, and/or NF-κB activity and use thereof” (Bristol-Myers Squibb Company, priority 2008, dated 2012), this text covers EC50 and Emax for 33 compounds.

What is called EC50 is the midpoint of the concentration-response curve.

This test has as its system AP-1. As to the kind of experiment: Cellular transrepression assay (AP-1 luciferase reporter in A549 cells, PMA activated). The test is classed as cell-based. The following applies: 7 h, 10 ng/ml PMA; for EC50: read-out: AP-1 (EC50, nM) (measured in cellular transrepression assay); for Emax: read-out: AP-1 Max % inhibition (measured in cellular transrepression assay). As to the method:
Cellular Transrepressional Assay
To measure the ability of test molecules to inhibit AP-1 induced transcriptional activity we utilized an A549 cell which was stably transfected with a plasmid containing 7×AP-1 DNA binding sites (pAP-1-Luc plasmid, Stratagene Co. La Jolla, Calif.) followed by the gene for luciferase. Cells were activated with 10 ng/ml of phorbol myristic acid (PMA) plus or minus test molecules for 7 hours. After 7 hours a luciferase reagent was added to measure luciferase enzymatic activity in the cell. After a 10 minute incubation of luciferase reagent with cells, luminescence was measured in a TopCount luminescence counter. Repression of AP-1 activity was calculated as the percentage decrease in the signal induced by PMA alone. Test molecules were analyzed in the concentration range from 0.1 nM to 40 μM. EC50s were determined by using standard curve fitting methods such as Excel fit (Microsoft Co.). An EC50 is the test molecule concentration at which there is a 50% repression of the maximal inhibition of transcription, i.e. a 50% reduction of AP-1 activity.
A general note: In a reporter assay the amount or activity of a reporter protein is the signal.

In the case of `CCN(C)C(=O)c1ccc(-c2ccc3c(n2)Oc2nc(C)ccc2[C@@H]3C(C)(C)C(=O)Nc2nnc(C)s2)cc1` [Example 35], the EC50 was found to be 175 nM and the Emax came out at 45%.

With `CCN(C)C(=O)c1ccc(-c2ccc3c(n2)Oc2nc(C)ccc2[C@@H]3C(C)(C)C(=O)Nc2nnc(C(=O)NC3CCC3)s2)cc1` [Example 49], the EC50 was 98 nM and the Emax turned out to be 66.3%.

Regarding `CCN(C)C(=O)c1ccc(-c2ccc3c(n2)Oc2nc(N(C)C)ccc2C3C(C)(C)C(=O)Nc2nnc(C)s2)cc1` (stereo not drawn) [Example 71], the EC50 turned out to be 67.2 nM and the Emax was 48.6%.

`Cc1ccc2c(n1)Oc1nc(-c3ccc(C(=O)N(C)C4CC4)cc3)ccc1[C@H]2C(C)(C)C(=O)Nc1nncs1` [Example 41]: the EC50 was 359 nM and the Emax is 39.2%.

As for `CN(C)C(=O)c1ccc(-c2ccc3c(n2)Oc2nc(C#N)ccc2C3C(C)(C)C(=O)Nc2nncs2)cc1` (stereo not drawn) [Example 66, 4-(8-cyano-5-(1,1-dimethyl-2-oxo-2-(1,3,4-thiadiazol-2-ylamino)ethyl)-5H-pyrido[3′,2′:5,6]pyrano[2,3-b]pyridin-2-yl)-N,N-dimethylbenzamide], the 50% effective concentration (EC50) is 335 nM and the Emax is 38.9%.

Regarding `CCN(C)C(=O)c1ccc(-c2ccc3c(n2)Oc2nc(C)ccc2C3C(C)(C)C(=O)Nc2nncs2)cc1F` (stereo not drawn) [Example 18], the EC50 came out at 52 nM and the Emax came to 47.8%.

For `Cc1nnc(NC(=O)C(C)(C)C2c3ccc(Cl)nc3Oc3nc(-c4ccc(C(=O)N5CCOCC5)cc4)ccc32)s1` (stereo not drawn) [Example 61], the EC50 amounted to 47.5 nM and the Emax amounted to 49.8%.

As for `Cc1nnc(NC(=O)C(C)(C)C2c3ccc(Cl)nc3Oc3nc(-c4ccc(C(=O)N(C)C)cc4)ccc32)s1` (stereo not drawn) [Example 56], the EC50 was determined as 70.6 nM and the Emax turned out to be 45.9%.

In the case of `CCN(C)C(=O)c1ccc(-c2ccc3c(n2)Oc2ncccc2C3C(C)(C)C(=O)Nc2nncs2)cc1` (single isomer, unassigned) [Example 9], the concentration for a half-maximal effect (EC50) was determined as 66.2 nM and the Emax came out at 55.4%.

Take `CC[S+]([O-])c1ccc(-c2ccc3c(n2)Oc2nc(C)ccc2C3C(C)(C)C(=O)Nc2nncs2)cc1` (stereo in doubt) [Example 81, 2-((5S)-2-(4-(ethylsulfinyl)phenyl)-8-methyl-5H-pyrido[3′,2′:5,6]pyrano[2,3-b]pyridin-5-yl)-2-methyl-N-1,3,4-thiadiazol-2-ylpropanamide]: the EC50 came to 368 nM and the Emax came out at 28.7%.

Regarding `Cc1ccc2c(n1)Oc1nc(-c3ccc(C(=O)N4CCOCC4)cc3)ccc1[C@H]2C(C)(C)C(=O)Nc1nnc(C(=O)NC2CCOCC2)s1` [Example 88, 5-((2-methyl-2-((5S)-2-methyl-8-(4-(4-morpholinylcarbonyl)phenyl)-5H-pyrano[2,3-b:6,5-b′]dipyridin-5-yl)propanoyl)amino)-N-(tetrahydro-2H-pyran-4-yl)-1,3,4-thiadiazole-2-carboxamide], the EC50 came out at 56.9 nM and the Emax was 32.9%.

On to `Cc1nnc(NC(=O)C(C)(C)C2c3ccc(-c4ccc(C(=O)N(C)C)cc4)nc3Oc3nc(N(C)C)ccc32)s1` (stereo not drawn) [Example 68, 4-(8-(dimethylamino)-5-(1,1-dimethyl-2-((5-methyl-1,3,4-thiadiazol-2-yl)amino)-2-oxoethyl)-5H-pyrido[3′,2′:5,6]pyrano[2,3-b]pyridin-2-yl)-N,N-dimethylbenzamide], for which the concentration giving a half-maximal response (EC50) is 95.3 nM and the Emax is 46.3%.

Turning to `Cc1ccc2c(n1)Oc1nc(-c3ccc(C(=O)N4CCOCC4)cc3)ccc1[C@H]2C(C)(C)C(=O)Nc1nnc(C2CC2)s1` [Example 93, N-(5-cyclopropyl-1,3,4-thiadiazol-2-yl)-2-methyl-2-((5 S)-2-methyl-8-(4-(4-morpholinylcarbonyl)phenyl)-5H-pyrido[3′,2′:5,6]pyrano[2,3-b]pyridin-5-yl)propanamide], the EC50 is 167 nM and the Emax is 44.3%.

For the compound `CCN(C)C(=O)c1ccc(-c2ccc3c(n2)Oc2nc(C)ccc2[C@@H]3C(C)(C)C(=O)Nc2nncs2)cc1` [Example 22], the EC50 was 81.9 nM and the Emax stood at 59.3%.

`CC(=O)c1ccc(-c2ccc3c(n2)Oc2nc(C)ccc2C3C(C)(C)C(=O)Nc2nncs2)cc1` (stereo not drawn) [Example 17]: the 50% effective concentration (EC50) was found to be 72.8 nM and the Emax was 42.4%.

As to `CCN(C)C(=O)c1ccc(-c2ccc3c(n2)Oc2nc(C)ccc2[C@@H]3C(C)(C)C(=O)Nc2nnc(C(=O)NC(C)C)s2)cc1` [Example 86], the EC50 is 183 nM and the Emax amounted to 61.6%.

For `Cc1ccc2c(n1)Oc1nc(-c3ccc(C(=O)N4CCCC4)cc3)ccc1[C@H]2C(C)(C)C(=O)Nc1nncs1` [Example 31], the EC50 stood at 376 nM and the Emax is 49.3%.

With `Cc1ccc2c(n1)Oc1nc(-c3ccc(C(=O)N4CCOCC4)c(F)c3)ccc1[C@H]2C(C)(C)C(=O)Nc1nncs1` [Example 42], the EC50 was 228 nM and the Emax is 43.6%.

Turning to `CC(C)Sc1ccc2c(n1)Oc1nc(-c3ccc(C(=O)N(C)C)cc3)ccc1C2C(C)(C)C(=O)Nc1nncs1` (stereo not drawn) [Example 55], the EC50 was 354 nM and the Emax came to 30.5%.

`CCN(C)C(=O)c1ccc(-c2ccc3c(n2)Oc2ncccc2C3C(C)(C)C(=O)Nc2nncs2)cc1` (stereo not drawn) [Example 4]: the EC50 is 197 nM and the Emax was 46.6%.

Regarding `CN(C)C(=O)c1ccc(-c2ccc3c(n2)Oc2ncccc2C3C(C)(C)C(=O)Nc2nncs2)cc1` (single isomer, unassigned) [Example 8], the EC50 turned out to be 194 nM and the Emax turned out to be 45.2%.

With `CN(C)C(=O)c1ccc(-c2ccc3c(n2)Oc2ncccc2C3C(C)(C)C(=O)Nc2nncs2)cc1` (stereo not drawn) [Example 3, 4-(5-(1,1-dimethyl-2-oxo-2-(1,3,4-thiadiazol-2-ylamino)ethyl)-5H-pyrido[3′,2′:5,6]pyrano[2,3-b]pyridin-2-yl)-N,N-dimethylbenzamide], the half-maximal effective concentration (EC50) came out at 189 nM and the Emax worked out at 38.6%.

Turning to `Cc1ccc2c(n1)Oc1nc(-c3ccc(C(=O)N4CCC(F)(F)C4)cc3)ccc1[C@H]2C(C)(C)C(=O)Nc1nncs1` [Example 40], the EC50 came out at 539 nM and the Emax stood at 43.3%.

Consider `Cc1ccc2c(n1)Oc1nc(-c3ccc(C(=O)N(C)C)cc3)ccc1C2C(C)(C)C(=O)Nc1nncs1` (stereo not drawn) [Example 10, 4-(5-(1,1-dimethyl-2-oxo-2-(1,3,4-thiadiazol-2-ylamino)ethyl)-8-methyl-5H-pyrido[3′,2′:5,6]pyrano[2,3-b]pyridin-2-yl)-N,N-dimethylbenzamide], for which the EC50 worked out at 189 nM and the Emax amounted to 39%.

Take `CCN(C)C(=O)c1ccc(-c2ccc3c(n2)Oc2nc(C)ccc2[C@@H]3C(C)(C)C(=O)Nc2nnc(C(=O)NC3CC3)s2)cc1` [Example 44]: the half-maximal effective concentration (EC50) is 589 nM and the Emax was determined as 60.8%.

With `Cc1ccc2c(n1)Oc1nc(-c3ccc(C(=O)N(C)C)cc3)ccc1[C@H]2C(C)(C)C(=O)Nc1nnc(C)s1` [Example 12], the EC50 came to 297 nM and the Emax turned out to be 26.6%.

As to `Cc1ccc2c(n1)Oc1nc(-c3ccc(C(=O)N(C)C)cc3)ccc1[C@H]2C(C)(C)C(=O)Nc1nncs1` [Example 11], the EC50 was 90.1 nM and the Emax was 45.2%.

On to `CCN(C)C(=O)c1ccc(-c2ccc3c(n2)Oc2nc(C)ccc2[C@@H]3C(C)(C)C(=O)Nc2nnc(C(=O)NCC(F)(F)F)s2)cc1` [Example 87], for which the EC50 came to 574 nM and the Emax worked out at 51.7%.

For `Cc1ccc2c(n1)Oc1nc(N(C)C)ccc1C2C(C)(C)C(=O)Nc1nncs1` (stereo not drawn) [Example 20, 2-(2-(dimethylamino)-8-methyl-5H-pyrido[3′,2′:5,6]pyrano[2,3-b]pyridin-5-yl)-2-methyl-N-1,3,4-thiadiazol-2-ylpropanamide], the EC50 is 198 nM and the Emax was determined as 27.9%.

As for `CCN(C)C(=O)c1ccc(-c2ccc3c(n2)Oc2nc(C)ccc2[C@@H]3C(C)(C)C(=O)Nc2nnc(C(=O)NC)s2)cc1` [Example 46], the EC50 is 759 nM and the Emax amounted to 36%.

For `CCN(C)C(=O)c1ccc(-c2ccc3c(n2)Oc2nc(C)ccc2[C@@H]3C(C)(C)C(=O)Nc2nccs2)cc1` [Example 34], the EC50 was 14.6 nM and the Emax was found to be 64.9%.

Regarding `CCC(=O)c1ccc(-c2ccc3c(n2)Oc2nc(C)ccc2[C@@H]3C(C)(C)C(=O)Nc2nncs2)cc1` [Example 76], the EC50 came out at 119 nM and the Emax worked out at 48.5%.

As for `CCOC(=O)c1nnc(NC(=O)C(C)(C)[C@H]2c3ccc(C)nc3Oc3nc(-c4ccc(C(=O)N(C)CC)cc4)ccc32)s1` [Example 32], the EC50 came to 176 nM and the Emax was determined as 74.3%.
